According to patent publication US9580444B2, “Polycyclic pyrazolinone derivative and herbicide comprising same as effective component thereof” (priority 2013, dated 2017):

How the values were obtained:
Experiment in all cases: Test Example-1: herbicidal effect by a treatment before weeds are generated under submerged conditions
Type in all cases: in vivo
Details in all cases: 500 g a.i/ha, pre-emergence treatment, about 15 days after treatment, score 0-5
[1] = test system: Scirpus juncoides (bulrush)
Outline: (§1)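 Weed seeds were sown in puddled paddy soil under flooding, then the diluted formulated compound was added to the water the same day at a predetermined dosage, and weed control was rated roughly 15 days afterwards in six stages (0–5).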

[2] = test system: Monochoria vaginalis (monochoria)
Outline: as §1

[3] = test system: Cyperus difformis (smallflower umbrella plant)
Outline: as §1

[4] = test system: Eleocharis acicularis (needle spikerush)
Outline: as §1

[5] = test system: other annual broad leaf weeds (Lindernia procumbens, Rotala indica, Elatine triandra)
Outline: as §1

[6] = test system: Echinochloa oryzicola (barnyard grass)
Outline: as §1

Compound | Herbicidal effect Scirpus juncoides [1] | Herbicidal effect Monochoria vaginalis [2] | Herbicidal effect Cyperus difformis [3] | Herbicidal effect Eleocharis acicularis [4] | Herbicidal effect Broadleaf weed [5] | Herbicidal effect Echinochloa oryzicola [6]
COc1cc(Cl)ccc1Oc1cc(-c2c(Cl)n3n(c2=O)CCCC3)c(F)cc1Cl [Compound 3-37] | 5 (Herbicidal effect/phytotoxicity was 90% or greater) | 5 (Herbicidal effect/phytotoxicity was 90% or greater) | 5 (Herbicidal effect/phytotoxicity was 90% or greater) | 5 (Herbicidal effect/phytotoxicity was 90% or greater) | 5 (Herbicidal effect/phytotoxicity was 90% or greater) | 5 (Herbicidal effect/phytotoxicity was 90% or greater)
O=c1c(-c2cc(Oc3cccc(O)c3)c(Cl)cc2F)c(Cl)n2n1CCCC2 [Compound 3-4] | 5 (Herbicidal effect/phytotoxicity was 90% or greater) | 5 (Herbicidal effect/phytotoxicity was 90% or greater) | 5 (Herbicidal effect/phytotoxicity was 90% or greater) | 5 (Herbicidal effect/phytotoxicity was 90% or greater) | 5 (Herbicidal effect/phytotoxicity was 90% or greater) | 5 (Herbicidal effect/phytotoxicity was 90% or greater)
COc1cc(-c2c(F)n3n(c2=O)CCCC3)c(Cl)cc1Cl [Example 1-356] | 5 (Herbicidal effect/phytotoxicity was 90% or greater) | 5 (Herbicidal effect/phytotoxicity was 90% or greater) | 5 (Herbicidal effect/phytotoxicity was 90% or greater) | 5 (Herbicidal effect/phytotoxicity was 90% or greater) | 5 (Herbicidal effect/phytotoxicity was 90% or greater) | 5 (Herbicidal effect/phytotoxicity was 90% or greater)
CCOC(=CC(=O)OC(C)C)COc1cc(-c2c(Cl)n3n(c2=O)CCCC3)c(F)cc1Cl [Compound 2-26] | 5 (Herbicidal effect/phytotoxicity was 90% or greater) | 5 (Herbicidal effect/phytotoxicity was 90% or greater) | 5 (Herbicidal effect/phytotoxicity was 90% or greater) | 5 (Herbicidal effect/phytotoxicity was 90% or greater) | 5 (Herbicidal effect/phytotoxicity was 90% or greater) | 5 (Herbicidal effect/phytotoxicity was 90% or greater)
COC(=O)C(Cl)Cc1cc(-c2c(Cl)n3n(c2=O)CCCC3)c(F)cc1Cl (stereo not drawn) [Example 1-257] | 5 (Herbicidal effect/phytotoxicity was 90% or greater) | 5 (Herbicidal effect/phytotoxicity was 90% or greater) | 5 (Herbicidal effect/phytotoxicity was 90% or greater) | 5 (Herbicidal effect/phytotoxicity was 90% or greater) | 5 (Herbicidal effect/phytotoxicity was 90% or greater) | 5 (Herbicidal effect/phytotoxicity was 90% or greater)
C#CCOc1cc(-c2c(F)n3n(c2=O)CCCCC3)c(Cl)cc1Cl [Example 1-361] | 5 (Herbicidal effect/phytotoxicity was 90% or greater) | 5 (Herbicidal effect/phytotoxicity was 90% or greater) | 5 (Herbicidal effect/phytotoxicity was 90% or greater) | 5 (Herbicidal effect/phytotoxicity was 90% or greater) | 5 (Herbicidal effect/phytotoxicity was 90% or greater) | 5 (Herbicidal effect/phytotoxicity was 90% or greater)
O=c1c(-c2cc(OC3CCCC3)c(F)cc2F)c(Cl)n2n1CCCC2 [Example 1-98] | 5 (Herbicidal effect/phytotoxicity was 90% or greater) | 5 (Herbicidal effect/phytotoxicity was 90% or greater) | 5 (Herbicidal effect/phytotoxicity was 90% or greater) | 5 (Herbicidal effect/phytotoxicity was 90% or greater) | 5 (Herbicidal effect/phytotoxicity was 90% or greater) | 5 (Herbicidal effect/phytotoxicity was 90% or greater)
O=c1c(-c2cc(OCC3CCCC3)c(Cl)cc2F)c(Cl)n2n1CCCC2 [Example 1-186] | 5 (Herbicidal effect/phytotoxicity was 90% or greater) | 5 (Herbicidal effect/phytotoxicity was 90% or greater) | 5 (Herbicidal effect/phytotoxicity was 90% or greater) | 5 (Herbicidal effect/phytotoxicity was 90% or greater) | 5 (Herbicidal effect/phytotoxicity was 90% or greater) | 5 (Herbicidal effect/phytotoxicity was 90% or greater)
C#CC(C)Oc1ccccc1Oc1cc(-c2c(Cl)n3n(c2=O)CCCC3)c(F)cc1Cl (stereo not drawn) [Compound 3-31] | 5 (Herbicidal effect/phytotoxicity was 90% or greater) | 5 (Herbicidal effect/phytotoxicity was 90% or greater) | 5 (Herbicidal effect/phytotoxicity was 90% or greater) | 5 (Herbicidal effect/phytotoxicity was 90% or greater) | 5 (Herbicidal effect/phytotoxicity was 90% or greater) | 5 (Herbicidal effect/phytotoxicity was 90% or greater)
CCOC(=CC(=O)OC)COc1cc(-c2c(Cl)n3n(c2=O)CCCC3)c(F)cc1Cl (mixture of isomers) [Compound 2-12] | 5 (Herbicidal effect/phytotoxicity was 90% or greater) | 5 (Herbicidal effect/phytotoxicity was 90% or greater) | 5 (Herbicidal effect/phytotoxicity was 90% or greater) | 5 (Herbicidal effect/phytotoxicity was 90% or greater) | 5 (Herbicidal effect/phytotoxicity was 90% or greater) | 5 (Herbicidal effect/phytotoxicity was 90% or greater)
CC(C)(C)OC(=O)COc1cc(-c2c(Cl)n3n(c2=O)CCCC3)c(F)cc1Cl [Example 1-165] | 5 (Herbicidal effect/phytotoxicity was 90% or greater) | 5 (Herbicidal effect/phytotoxicity was 90% or greater) | 5 (Herbicidal effect/phytotoxicity was 90% or greater) | 5 (Herbicidal effect/phytotoxicity was 90% or greater) | 5 (Herbicidal effect/phytotoxicity was 90% or greater) | 5 (Herbicidal effect/phytotoxicity was 90% or greater)
CCCOC(=CC(=O)OC)COc1cc(-c2c(Cl)n3n(c2=O)CCCC3)c(F)cc1Cl (mixture of isomers) [Compound 2-13] | 5 (Herbicidal effect/phytotoxicity was 90% or greater) | 5 (Herbicidal effect/phytotoxicity was 90% or greater) | 5 (Herbicidal effect/phytotoxicity was 90% or greater) | 5 (Herbicidal effect/phytotoxicity was 90% or greater) | 5 (Herbicidal effect/phytotoxicity was 90% or greater) | 5 (Herbicidal effect/phytotoxicity was 90% or greater)
CCOC(=O)C(Cl)Cc1cc(-c2c(Cl)n3n(c2=O)CCCC3)c(F)cc1Cl (stereo not drawn) [Example 1-260] | 5 (Herbicidal effect/phytotoxicity was 90% or greater) | 5 (Herbicidal effect/phytotoxicity was 90% or greater) | 5 (Herbicidal effect/phytotoxicity was 90% or greater) | 5 (Herbicidal effect/phytotoxicity was 90% or greater) | 5 (Herbicidal effect/phytotoxicity was 90% or greater) | 5 (Herbicidal effect/phytotoxicity was 90% or greater)
CC(C)CCOc1cc(-c2c(Cl)n3n(c2=O)CCCC3)c(F)cc1Cl [Example 1-159] | 5 (Herbicidal effect/phytotoxicity was 90% or greater) | 5 (Herbicidal effect/phytotoxicity was 90% or greater) | 5 (Herbicidal effect/phytotoxicity was 90% or greater) | 5 (Herbicidal effect/phytotoxicity was 90% or greater) | 5 (Herbicidal effect/phytotoxicity was 90% or greater) | 5 (Herbicidal effect/phytotoxicity was 90% or greater)
O=c1c(-c2cc(Oc3c(F)cc(C(F)(F)F)cc3Cl)c(F)cc2F)c(Cl)n2n1CCCC2 [Example 1-340] | 5 (Herbicidal effect/phytotoxicity was 90% or greater) | 5 (Herbicidal effect/phytotoxicity was 90% or greater) | 5 (Herbicidal effect/phytotoxicity was 90% or greater) | 5 (Herbicidal effect/phytotoxicity was 90% or greater) | 5 (Herbicidal effect/phytotoxicity was 90% or greater) | 5 (Herbicidal effect/phytotoxicity was 90% or greater)
C=CCOc1ccccc1Oc1cc(-c2c(Cl)n3n(c2=O)CCCC3)c(F)cc1Cl [Compound 3-27] | 5 (Herbicidal effect/phytotoxicity was 90% or greater) | 5 (Herbicidal effect/phytotoxicity was 90% or greater) | 5 (Herbicidal effect/phytotoxicity was 90% or greater) | 5 (Herbicidal effect/phytotoxicity was 90% or greater) | 5 (Herbicidal effect/phytotoxicity was 90% or greater) | 5 (Herbicidal effect/phytotoxicity was 90% or greater)
